In general, efflux ratio refers to a quotient of directional permeabilities that is used to spot active efflux.

Structures are written as SMILES.

This series deals with P-glycoprotein (P-gp) (Sus scrofa, UniProt K7GMM7). The format is in vitro ADME, pig (Sus scrofa domesticus). The note with it: Landrace, pig.
Sequence of P-glycoprotein (P-gp) (K7GMM7 1-1248): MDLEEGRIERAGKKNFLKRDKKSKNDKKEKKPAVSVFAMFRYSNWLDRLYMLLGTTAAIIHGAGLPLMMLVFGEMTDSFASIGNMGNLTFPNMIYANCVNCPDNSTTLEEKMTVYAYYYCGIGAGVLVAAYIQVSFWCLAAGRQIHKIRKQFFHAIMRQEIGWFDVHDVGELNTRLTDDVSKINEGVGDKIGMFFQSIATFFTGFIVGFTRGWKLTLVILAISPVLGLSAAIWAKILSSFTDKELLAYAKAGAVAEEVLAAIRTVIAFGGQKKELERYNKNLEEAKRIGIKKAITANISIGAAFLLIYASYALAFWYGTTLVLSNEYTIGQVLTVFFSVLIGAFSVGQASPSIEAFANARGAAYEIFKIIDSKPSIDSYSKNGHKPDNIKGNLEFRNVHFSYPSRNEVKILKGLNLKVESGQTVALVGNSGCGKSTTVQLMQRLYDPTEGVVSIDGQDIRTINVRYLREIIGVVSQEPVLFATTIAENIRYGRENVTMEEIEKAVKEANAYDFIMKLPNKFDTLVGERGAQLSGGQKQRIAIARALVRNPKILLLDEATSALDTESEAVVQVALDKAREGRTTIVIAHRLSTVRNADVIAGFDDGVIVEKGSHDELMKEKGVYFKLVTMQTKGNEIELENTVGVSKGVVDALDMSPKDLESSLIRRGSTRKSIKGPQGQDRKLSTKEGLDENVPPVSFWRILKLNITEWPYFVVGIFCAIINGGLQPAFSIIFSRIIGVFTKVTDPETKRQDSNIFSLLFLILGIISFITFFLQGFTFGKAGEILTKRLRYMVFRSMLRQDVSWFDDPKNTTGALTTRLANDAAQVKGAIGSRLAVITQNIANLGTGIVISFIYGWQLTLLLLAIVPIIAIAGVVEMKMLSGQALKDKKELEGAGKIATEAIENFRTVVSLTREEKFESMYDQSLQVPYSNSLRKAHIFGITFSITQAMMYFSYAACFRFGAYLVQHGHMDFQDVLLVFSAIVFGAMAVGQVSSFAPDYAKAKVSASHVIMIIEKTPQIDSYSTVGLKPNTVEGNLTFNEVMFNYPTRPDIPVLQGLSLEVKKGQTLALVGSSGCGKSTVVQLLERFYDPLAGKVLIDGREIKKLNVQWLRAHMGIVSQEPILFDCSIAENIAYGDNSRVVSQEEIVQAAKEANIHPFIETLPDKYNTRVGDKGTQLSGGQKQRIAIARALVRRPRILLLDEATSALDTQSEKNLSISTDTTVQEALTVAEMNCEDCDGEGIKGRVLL

For the molecule `COC(=O)c1ccccc1-c1c2ccc(=N)cc-2oc2cc(N)ccc12` [R123, Rhodamine 123], the efflux ratio at 120 min, 5 μM amounted to 2.2.

The values above are taken from publication PMC9326877 (Journal of Food and Drug Analysis, 2018).
